From PubChem BioAssay AID651630 (Sanford-Burnham Center for Chemical Genomics, 2012)
Values belong to the compound of their own block, whether it stands above or below them. Activity calls are given as the source filed them.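 The calls were made as follows: active = lipid-stain IC50 at or below a set limit, with nuclear-stain toxicity IC50 at least five times higher; inactive = the rest.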

Legend:
TAG = assay: triacylglycerol accumulation inhibitor potency, dose response, cell-based, panel, Nile Red and DAPI fluorescence, H9c2 (AID 651630); conditions: H9c2 cells, Nile Red TAG fluorescence, oleic acid;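 also: cells exposed to compound overnight before fixation and staining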
DAPI = assay: as above; conditions: H9c2 cells, DAPI nuclear fluorescence (cytotoxicity counter-readout), oleic acid

Structure (SMILES): COc1cc(-c2noc(C)c2C#Cc2ccc(N)cc2)cc(OC)c1OC
IC50 (TAG; run 1): > 25 µM
IC50 (TAG; run 2): 8.23 µM
IC50 cytotoxicity (DAPI nuclear signal decrease) (DAPI; mean of runs): > 25 µM (inactive)
IC50 cytotoxicity (DAPI nuclear signal decrease) (DAPI; run 1): > 25 µM
IC50 cytotoxicity (DAPI nuclear signal decrease) (DAPI; run 2): > 25 µM

Structure (SMILES): CN=C1c2cc3cc(OC)ccc3n2CCN1Cc1ccccc1
IC50 (TAG; mean of runs): 10.6 µM
IC50 (TAG; run 1): 9.62 µM
IC50 (TAG; run 2): 11.7 µM
IC50 cytotoxicity (DAPI nuclear signal decrease) (DAPI; mean of runs): > 25 µM (inactive)
IC50 cytotoxicity (DAPI nuclear signal decrease) (DAPI; run 1): > 25 µM
IC50 cytotoxicity (DAPI nuclear signal decrease) (DAPI; run 2): > 25 µM

Structure (SMILES): Cc1cc(N2CCOCC2)n2nc(C)c(-c3ccccc3)c2n1
IC50 (TAG; run 1): 14.6 µM
IC50 (TAG; run 2): > 25 µM
IC50 cytotoxicity (DAPI nuclear signal decrease) (DAPI; mean of runs): > 25 µM (inactive)
IC50 cytotoxicity (DAPI nuclear signal decrease) (DAPI; run 1): > 25 µM
IC50 cytotoxicity (DAPI nuclear signal decrease) (DAPI; run 2): > 25 µM

Structure (SMILES): COCCCNC(=O)C(=O)Nc1ccc2c(c1)N(S(=O)(=O)c1cccs1)CCC2
IC50 (TAG; run 1): 7.64 µM
IC50 (TAG; run 2): > 25 µM
IC50 cytotoxicity (DAPI nuclear signal decrease) (DAPI; mean of runs): > 25 µM (inactive)
IC50 cytotoxicity (DAPI nuclear signal decrease) (DAPI; run 1): > 25 µM
IC50 cytotoxicity (DAPI nuclear signal decrease) (DAPI; run 2): > 25 µM

Structure (SMILES): Cc1cc(Nc2ccc(C)c(Cl)c2)nc(N2CCOCC2)n1
IC50 (TAG; mean of runs): > 25 µM (inactive)
IC50 (TAG; run 1): > 25 µM
IC50 (TAG; run 2): > 25 µM
IC50 cytotoxicity (DAPI nuclear signal decrease) (DAPI; mean of runs): > 25 µM (inactive)
IC50 cytotoxicity (DAPI nuclear signal decrease) (DAPI; run 1): > 25 µM
IC50 cytotoxicity (DAPI nuclear signal decrease) (DAPI; run 2): > 25 µM

Structure (SMILES): CCOC(=O)c1c(C)[nH]c(C(=O)OCC(=O)NCCc2ccc(OCC)c(OCC)c2)c1C
IC50 (TAG; mean of runs): > 25 µM (inactive)
IC50 (TAG; run 1): > 25 µM
IC50 (TAG; run 2): > 25 µM
IC50 cytotoxicity (DAPI nuclear signal decrease) (DAPI; mean of runs): > 25 µM (inactive)
IC50 cytotoxicity (DAPI nuclear signal decrease) (DAPI; run 1): > 25 µM
IC50 cytotoxicity (DAPI nuclear signal decrease) (DAPI; run 2): > 25 µM

Structure (SMILES): N/C(=N\c1nc2ccccc2o1)NC(=O)c1ccc(F)cc1
IC50 (TAG; mean of runs): > 25 µM (inactive)
IC50 (TAG; run 1): > 25 µM
IC50 (TAG; run 2): > 25 µM
IC50 cytotoxicity (DAPI nuclear signal decrease) (DAPI; mean of runs): > 25 µM (inactive)
IC50 cytotoxicity (DAPI nuclear signal decrease) (DAPI; run 1): > 25 µM
IC50 cytotoxicity (DAPI nuclear signal decrease) (DAPI; run 2): > 25 µM

Structure (SMILES): CN(C)CCNC(=O)C(=O)Nc1ccc2c(c1)N(S(=O)(=O)c1cccs1)CCC2
IC50 (TAG; mean of runs): > 25 µM (inactive)
IC50 (TAG; run 1): > 25 µM
IC50 (TAG; run 2): > 25 µM
IC50 cytotoxicity (DAPI nuclear signal decrease) (DAPI; mean of runs): > 25 µM (inactive)
IC50 cytotoxicity (DAPI nuclear signal decrease) (DAPI; run 1): > 25 µM
IC50 cytotoxicity (DAPI nuclear signal decrease) (DAPI; run 2): > 25 µM

Structure (SMILES): CCCCC(CC)C(=O)Nc1cc(C(=O)NCc2ccc(C)cc2)ccc1N1CCC2(CC1)CC(c1ccccc1)=NO2 (stereo not given)
IC50 (TAG; mean of runs): 3.47 µM
IC50 (TAG; run 1): 3.44 µM
IC50 (TAG; run 2): 3.5 µM
IC50 cytotoxicity (DAPI nuclear signal decrease) (DAPI; run 1): > 25 µM
IC50 cytotoxicity (DAPI nuclear signal decrease) (DAPI; run 2): > 25 µM

Structure (SMILES): O=C(Nc1ccc(-c2csc(Nc3cccc(C(F)(F)F)c3)n2)cc1)c1ccccc1
IC50 (TAG; run 1): 22.3 µM
IC50 (TAG; run 2): > 25 µM
IC50 cytotoxicity (DAPI nuclear signal decrease) (DAPI; mean of runs): > 25 µM (inactive)
IC50 cytotoxicity (DAPI nuclear signal decrease) (DAPI; run 1): > 25 µM
IC50 cytotoxicity (DAPI nuclear signal decrease) (DAPI; run 2): > 25 µM

Structure (SMILES): CCOc1ccc(C(=O)NC(=S)Nc2cccc(S(=O)(=O)NC3=NCCC3)c2)cc1
IC50 (TAG; mean of runs): > 25 µM (inactive)
IC50 (TAG; run 1): > 25 µM
IC50 (TAG; run 2): > 25 µM
IC50 cytotoxicity (DAPI nuclear signal decrease) (DAPI; mean of runs): > 25 µM (inactive)
IC50 cytotoxicity (DAPI nuclear signal decrease) (DAPI; run 1): > 25 µM
IC50 cytotoxicity (DAPI nuclear signal decrease) (DAPI; run 2): > 25 µM

Structure (SMILES): CNCCCN1c2ccccc2CCc2ccccc21
IC50 (TAG; mean of runs): > 25 µM (inactive)
IC50 (TAG; run 1): > 25 µM
IC50 (TAG; run 2): > 25 µM
IC50 cytotoxicity (DAPI nuclear signal decrease) (DAPI; mean of runs): > 25 µM (inactive)
IC50 cytotoxicity (DAPI nuclear signal decrease) (DAPI; run 1): > 25 µM
IC50 cytotoxicity (DAPI nuclear signal decrease) (DAPI; run 2): > 25 µM

Structure (SMILES): Cc1cc(C)c(NC(=O)CSc2nc3ccc(NC(=O)CSc4nnnn4Cc4ccccc4)cc3s2)c(C)c1
IC50 (TAG; mean of runs): > 25 µM (inactive)
IC50 (TAG; run 1): > 25 µM
IC50 (TAG; run 2): > 25 µM
IC50 cytotoxicity (DAPI nuclear signal decrease) (DAPI; mean of runs): > 25 µM (inactive)
IC50 cytotoxicity (DAPI nuclear signal decrease) (DAPI; run 1): > 25 µM
IC50 cytotoxicity (DAPI nuclear signal decrease) (DAPI; run 2): > 25 µM

Now from value to compound, other results behind:

IC50 (TAG; run 1): 12.2 µM
IC50 (TAG; run 2): > 25 µM
Structure (SMILES): COc1cc2c(c(OC)c1OC)-c1ccc(OC)c(=O)cc1C(NC(=O)c1ccccc1)CC2 (stereo not given)
IC50 cytotoxicity (DAPI nuclear signal decrease) (DAPI; mean of runs): > 25 µM (inactive)
IC50 cytotoxicity (DAPI nuclear signal decrease) (DAPI; run 1): > 25 µM
IC50 cytotoxicity (DAPI nuclear signal decrease) (DAPI; run 2): > 25 µM

IC50 (TAG; mean of runs): 16.9 µM (inactive)
IC50 (TAG; run 1): 25 µM
IC50 (TAG; run 2): 8.72 µM
Structure (SMILES): COC(=O)c1ccc(/C=C/c2c(-c3ccsc3)oc3ccc(N4CCOCC4)cc23)cc1
IC50 cytotoxicity (DAPI nuclear signal decrease) (DAPI; mean of runs): > 25 µM (inactive)
IC50 cytotoxicity (DAPI nuclear signal decrease) (DAPI; run 1): > 25 µM
IC50 cytotoxicity (DAPI nuclear signal decrease) (DAPI; run 2): > 25 µM

IC50 (TAG; mean of runs): 11.6 µM
IC50 (TAG; run 1): 13.3 µM
IC50 (TAG; run 2): 9.99 µM
Structure (SMILES): COc1cc(/C=C/CN2CCC(C(=O)NC(c3ccc(F)cc3)c3ccc4ccccc4n3)CC2)ccc1OC(C)=O (stereo not given)
IC50 cytotoxicity (DAPI nuclear signal decrease) (DAPI; mean of runs): > 25 µM (inactive)
IC50 cytotoxicity (DAPI nuclear signal decrease) (DAPI; run 1): > 25 µM
IC50 cytotoxicity (DAPI nuclear signal decrease) (DAPI; run 2): > 25 µM

IC50 (TAG; mean of runs): 19.2 µM (inactive)
IC50 (TAG; run 1): 18.9 µM
IC50 (TAG; run 2): 19.4 µM
Structure (SMILES): Cc1cc(C(=O)COC(=O)c2ccc([N+](=O)[O-])o2)c(C)n1CC1CCCO1 (stereo not given)
IC50 cytotoxicity (DAPI nuclear signal decrease) (DAPI; run 1): 16.4 µM
IC50 cytotoxicity (DAPI nuclear signal decrease) (DAPI; run 2): > 25 µM

IC50 (TAG; run 1): 20.6 µM
IC50 (TAG; run 2): > 25 µM
Structure (SMILES): Cc1ccc(-n2nc(C)c3c(C)c(CCC(=O)Nc4ccc(CN5CCCC5)cc4)c(C)nc32)cc1
IC50 cytotoxicity (DAPI nuclear signal decrease) (DAPI; mean of runs): > 25 µM (inactive)
IC50 cytotoxicity (DAPI nuclear signal decrease) (DAPI; run 1): > 25 µM
IC50 cytotoxicity (DAPI nuclear signal decrease) (DAPI; run 2): > 25 µM

IC50 (TAG; mean of runs): > 25 µM (inactive)
IC50 (TAG; run 1): > 25 µM
IC50 (TAG; run 2): > 25 µM
Structure (SMILES): CCOC(=O)c1cc(CC)sc1NC(=O)c1cc([N+](=O)[O-])ccc1N1CCOCC1
IC50 cytotoxicity (DAPI nuclear signal decrease) (DAPI; mean of runs): > 25 µM (inactive)
IC50 cytotoxicity (DAPI nuclear signal decrease) (DAPI; run 1): > 25 µM
IC50 cytotoxicity (DAPI nuclear signal decrease) (DAPI; run 2): > 25 µM

IC50 (TAG; mean of runs): > 25 µM (inactive)
IC50 (TAG; run 1): > 25 µM
IC50 (TAG; run 2): > 25 µM
Structure (SMILES): CC(=O)c1ccc(-c2cnc3c(NC=O)cc(-c4ccc(C(=O)NC5CC5)cc4)cn23)cc1
IC50 cytotoxicity (DAPI nuclear signal decrease) (DAPI; mean of runs): > 25 µM (inactive)
IC50 cytotoxicity (DAPI nuclear signal decrease) (DAPI; run 1): > 25 µM
IC50 cytotoxicity (DAPI nuclear signal decrease) (DAPI; run 2): > 25 µM

IC50 (TAG; mean of runs): > 25 µM (inactive)
IC50 (TAG; run 1): > 25 µM
IC50 (TAG; run 2): > 25 µM
Structure (SMILES): COc1ccc(/C=C2/CCCc3ccccc3C2=O)cc1
IC50 cytotoxicity (DAPI nuclear signal decrease) (DAPI; mean of runs): > 25 µM (inactive)
IC50 cytotoxicity (DAPI nuclear signal decrease) (DAPI; run 1): > 25 µM
IC50 cytotoxicity (DAPI nuclear signal decrease) (DAPI; run 2): > 25 µM

IC50 (TAG; run 1): > 25 µM
IC50 (TAG; run 2): 20.3 µM
Structure (SMILES): NC(=O)c1cc(-c2ccccc2)nc(N2CCOCC2)n1
IC50 cytotoxicity (DAPI nuclear signal decrease) (DAPI; mean of runs): > 25 µM (inactive)
IC50 cytotoxicity (DAPI nuclear signal decrease) (DAPI; run 1): > 25 µM
IC50 cytotoxicity (DAPI nuclear signal decrease) (DAPI; run 2): > 25 µM

IC50 (TAG; run 1): 16.1 µM
IC50 (TAG; run 2): > 25 µM
Structure (SMILES): COc1ccccc1NC(=O)Nc1nc(C(N)Cc2ccc(C(F)(F)F)cc2)cs1 (stereo not given)
IC50 cytotoxicity (DAPI nuclear signal decrease) (DAPI; mean of runs): > 25 µM (inactive)
IC50 cytotoxicity (DAPI nuclear signal decrease) (DAPI; run 1): > 25 µM
IC50 cytotoxicity (DAPI nuclear signal decrease) (DAPI; run 2): > 25 µM

IC50 (TAG; mean of runs): > 25 µM (inactive)
IC50 (TAG; run 1): > 25 µM
IC50 (TAG; run 2): > 25 µM
Structure (SMILES): NC1=NC[C@H](Cc2ccccc2)N1CCc1cc(C(F)(F)F)cc(C(F)(F)F)c1
IC50 cytotoxicity (DAPI nuclear signal decrease) (DAPI; mean of runs): > 25 µM (inactive)
IC50 cytotoxicity (DAPI nuclear signal decrease) (DAPI; run 1): > 25 µM
IC50 cytotoxicity (DAPI nuclear signal decrease) (DAPI; run 2): > 25 µM

IC50 (TAG; mean of runs): 15.2 µM (inactive)
IC50 (TAG; run 1): 11.8 µM
IC50 (TAG; run 2): 18.6 µM
Structure (SMILES): CCCCCCCC(=O)Nc1cc(C(=O)NCCC)ccc1N1CCC2(CC1)CC(c1cccc(Br)c1)=NO2
IC50 cytotoxicity (DAPI nuclear signal decrease) (DAPI; mean of runs): > 25 µM (inactive)
IC50 cytotoxicity (DAPI nuclear signal decrease) (DAPI; run 1): > 25 µM
IC50 cytotoxicity (DAPI nuclear signal decrease) (DAPI; run 2): > 25 µM
